Format in all cases: biochemical
The target of assay [1] is HDAC-2 (Homo sapiens, UniProt Q92769). Nature of the assay: Enzymatic HDAC inhibition assay (fluorescence), HDAC-2. The method, then:
(§1) Enzymatic assays to evaluate HDAC inhibition were performed, and the design involved three steps: (a) Preliminary screening to identify the most promising compounds; (b) Evaluation by a panel of HDAC isoforms to investigate selectivity; and (c) Determination of IC50 values. Firstly, compounds (4–7; 15–26) were evaluated at 10 µM against HDAC-1 and HDAC-2 (Table 2).
(§2) The enzymatic assay to evaluate HDAC inhibitory effects for all final compounds against the distinct isoforms was carried out in accordance with the previously described procedures (Lopes et al., 2021). All compounds were initially screened at 10 µM against HDAC-1 and HDAC-2. […] All the compounds were dissolved in DMSO. A serial dilution of the compounds was performed in 100% DMSO with the highest concentration at 1 mM. Each intermediate compound dilution (in 100% DMSO) was diluted 10x in assay buffer to form a 10% DMSO intermediate dilution in HDAC assay buffer. 5 µL of this dilution was added to a 50 µL reaction to bring the final concentration of DMSO to 1% in all the reactions. Three independent experiments were carried out in triplicate for all experiments. The fluorescence intensity was measured at an excitation of 360 nm and emission of 460 nm using a Tecan Infinite M1000 microplate reader, and the percentage of activity was calculated using the formula: % activity = (F − Fb)/(Ft − Fb), where F = the intensity of fluorescence in the presence of the compound. In the absence of the test compound, the fluorescent intensity (Ft) in each dataset was defined as 100% activity, while in the absence of HDAC, the fluorescent intensity (Fb) in each dataset was set to 0% activity.

Assay [2] deals with T1, HDAC-7 (Homo sapiens, UniProt Q8WUI4).
T1 sequence (Q8WUI4 1-952): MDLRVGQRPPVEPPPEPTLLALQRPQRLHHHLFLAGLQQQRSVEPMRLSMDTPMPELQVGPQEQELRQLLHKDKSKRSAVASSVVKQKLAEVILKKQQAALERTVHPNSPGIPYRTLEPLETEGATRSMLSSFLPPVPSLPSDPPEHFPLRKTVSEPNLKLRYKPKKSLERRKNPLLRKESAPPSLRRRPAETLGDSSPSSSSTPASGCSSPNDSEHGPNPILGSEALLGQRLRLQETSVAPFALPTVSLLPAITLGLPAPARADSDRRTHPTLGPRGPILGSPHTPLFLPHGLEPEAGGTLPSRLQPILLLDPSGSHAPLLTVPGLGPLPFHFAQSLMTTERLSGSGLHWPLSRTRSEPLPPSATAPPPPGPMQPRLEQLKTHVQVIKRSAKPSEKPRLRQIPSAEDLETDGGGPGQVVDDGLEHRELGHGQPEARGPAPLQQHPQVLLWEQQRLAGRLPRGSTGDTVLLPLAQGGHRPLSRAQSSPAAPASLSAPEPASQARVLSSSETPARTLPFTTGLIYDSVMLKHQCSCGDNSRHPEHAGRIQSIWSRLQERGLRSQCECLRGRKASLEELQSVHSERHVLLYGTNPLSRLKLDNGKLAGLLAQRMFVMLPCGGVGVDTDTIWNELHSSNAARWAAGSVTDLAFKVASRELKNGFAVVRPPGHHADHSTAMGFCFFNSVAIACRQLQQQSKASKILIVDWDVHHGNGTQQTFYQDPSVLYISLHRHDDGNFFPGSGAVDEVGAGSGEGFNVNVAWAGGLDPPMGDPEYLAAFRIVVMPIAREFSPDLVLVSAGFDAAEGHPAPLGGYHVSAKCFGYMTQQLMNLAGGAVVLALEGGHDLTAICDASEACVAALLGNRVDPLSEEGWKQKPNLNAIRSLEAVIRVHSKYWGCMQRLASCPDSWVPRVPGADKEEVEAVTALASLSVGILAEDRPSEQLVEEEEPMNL
Nature of the assay: Enzymatic HDAC selectivity panel, HDAC-7. Conditions: compound at 10 µM. The method, then: as §1
as §2, with “Three independent experiments were carried out in triplicate for all experiments.” left out, “In the absence of the test compound, the fluorescent intensity (Ft) in each dataset was defined as 100% activity, while in the absence of HDAC, the fluorescent intensity (Fb) in each dataset was set to 0% activity.” left out

Assay [3] deals with HDAC-9 (Homo sapiens, UniProt Q9UKV0). The experiment in a line: Enzymatic HDAC selectivity panel, HDAC-9. Conditions: compound at 10 µM. The method, then: as §1
as §2, with “Three independent experiments were carried out in triplicate for all experiments.” left out, “In the absence of the test compound, the fluorescent intensity (Ft) in each dataset was defined as 100% activity, while in the absence of HDAC, the fluorescent intensity (Fb) in each dataset was set to 0% activity.” left out

In assay [4] the target is T2, HDAC-10 (Homo sapiens, UniProt Q969S8).
T2 sequence (Q969S8 1-669): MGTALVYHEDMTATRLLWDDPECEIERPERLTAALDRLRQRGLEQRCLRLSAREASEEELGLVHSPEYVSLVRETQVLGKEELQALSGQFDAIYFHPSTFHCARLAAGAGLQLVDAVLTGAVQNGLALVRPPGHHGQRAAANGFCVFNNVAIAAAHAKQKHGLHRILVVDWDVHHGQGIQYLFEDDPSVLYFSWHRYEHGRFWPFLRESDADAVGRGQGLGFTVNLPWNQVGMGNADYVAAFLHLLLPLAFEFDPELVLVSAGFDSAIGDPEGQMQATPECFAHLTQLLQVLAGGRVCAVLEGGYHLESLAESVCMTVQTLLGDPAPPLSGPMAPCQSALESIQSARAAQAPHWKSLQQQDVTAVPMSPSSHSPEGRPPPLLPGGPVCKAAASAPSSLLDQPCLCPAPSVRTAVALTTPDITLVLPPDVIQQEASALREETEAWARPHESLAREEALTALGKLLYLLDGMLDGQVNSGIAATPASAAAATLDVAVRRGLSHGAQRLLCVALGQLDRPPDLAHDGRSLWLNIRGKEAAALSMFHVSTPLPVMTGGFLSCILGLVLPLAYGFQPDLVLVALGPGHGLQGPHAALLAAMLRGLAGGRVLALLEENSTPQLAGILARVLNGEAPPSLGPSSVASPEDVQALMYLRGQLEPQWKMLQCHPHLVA
Nature of the assay: Enzymatic HDAC selectivity panel, HDAC-10. The settings on record: compound at 10 µM. The method, then:
as §1
as §2, with “Three independent experiments were carried out in triplicate for all experiments.” left out, “In the absence of the test compound, the fluorescent intensity (Ft) in each dataset was defined as 100% activity, while in the absence of HDAC, the fluorescent intensity (Fb) in each dataset was set to 0% activity.” left out

Results on one compound are retold here after article PMC9611521, “Optimization of Resveratrol Used as a Scaffold to Design Histone Deacetylase (HDAC-1 and HDAC-2) Inhibitors” (Pharmaceuticals, 2022).

Usually inhibition stands for the share of the control response that was lost under treatment. Read a low inhibition as a weak effect. Usually IC50 stands for the concentration at which inhibition is half-maximal. Low readings indicate inhibition by little substance, high ones a need for much substance.

Sequence of HDAC-2 (Q92769 whole entry, canonical isoform): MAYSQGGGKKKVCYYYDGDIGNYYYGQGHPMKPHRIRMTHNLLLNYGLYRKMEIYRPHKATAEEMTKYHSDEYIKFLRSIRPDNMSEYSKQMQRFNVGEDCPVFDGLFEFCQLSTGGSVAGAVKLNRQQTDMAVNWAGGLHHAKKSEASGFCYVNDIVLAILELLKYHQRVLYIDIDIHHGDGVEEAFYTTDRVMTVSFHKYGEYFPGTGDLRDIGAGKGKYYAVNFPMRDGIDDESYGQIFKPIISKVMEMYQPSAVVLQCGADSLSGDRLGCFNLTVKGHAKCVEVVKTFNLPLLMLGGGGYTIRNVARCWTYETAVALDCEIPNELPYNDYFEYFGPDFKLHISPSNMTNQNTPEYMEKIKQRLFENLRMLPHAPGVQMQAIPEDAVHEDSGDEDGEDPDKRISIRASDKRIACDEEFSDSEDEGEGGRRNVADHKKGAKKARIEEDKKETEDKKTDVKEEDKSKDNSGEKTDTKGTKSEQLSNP
Sequence of HDAC-9 (Q9UKV0 whole entry): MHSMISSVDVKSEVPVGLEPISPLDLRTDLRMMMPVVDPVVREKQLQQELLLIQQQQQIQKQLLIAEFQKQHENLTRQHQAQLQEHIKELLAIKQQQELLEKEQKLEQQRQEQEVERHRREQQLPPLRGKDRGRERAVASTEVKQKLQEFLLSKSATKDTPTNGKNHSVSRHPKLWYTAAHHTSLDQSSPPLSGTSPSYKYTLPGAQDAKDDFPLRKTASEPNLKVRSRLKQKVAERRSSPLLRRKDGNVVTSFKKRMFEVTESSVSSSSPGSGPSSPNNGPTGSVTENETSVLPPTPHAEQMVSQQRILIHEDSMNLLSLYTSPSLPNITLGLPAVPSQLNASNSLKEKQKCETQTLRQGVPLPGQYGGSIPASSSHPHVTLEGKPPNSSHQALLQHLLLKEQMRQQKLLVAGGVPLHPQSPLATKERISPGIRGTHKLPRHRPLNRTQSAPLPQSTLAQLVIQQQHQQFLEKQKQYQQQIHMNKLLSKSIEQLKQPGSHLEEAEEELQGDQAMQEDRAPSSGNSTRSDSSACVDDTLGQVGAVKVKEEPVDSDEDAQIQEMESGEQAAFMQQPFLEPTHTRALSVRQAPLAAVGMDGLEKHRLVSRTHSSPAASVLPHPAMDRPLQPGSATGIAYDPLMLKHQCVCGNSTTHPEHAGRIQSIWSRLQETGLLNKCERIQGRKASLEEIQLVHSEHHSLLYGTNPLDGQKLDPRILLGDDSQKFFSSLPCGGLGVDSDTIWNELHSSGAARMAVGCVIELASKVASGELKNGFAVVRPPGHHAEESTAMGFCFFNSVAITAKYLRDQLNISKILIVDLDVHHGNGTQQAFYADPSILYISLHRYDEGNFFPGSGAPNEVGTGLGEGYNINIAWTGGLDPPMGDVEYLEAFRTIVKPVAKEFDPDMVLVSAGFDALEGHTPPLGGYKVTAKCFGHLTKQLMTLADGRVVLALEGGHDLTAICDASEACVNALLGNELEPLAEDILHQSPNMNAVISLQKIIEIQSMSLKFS

For the compound `Nc1ccc(CCc2ccc(C(=O)Nc3ccccc3N)cc2)cc1` [Compound (5)], the inhibition at 10 µM was 93% in assay [1] (compound at 10 µM), 15 ± 0.7% in assay [2], 7 ± 0.4% in assay [3] and 60 ± 1.4% in assay [4]. In addition, in assay [1] (compound at 10 µM, 10 µM), the HDAC-2 inhibition worked out at 92 ± 0.8%. The compound further gave an IC50 in assay [1] (substrate 10 µM) of 0.37 µM.
